Assay results reported in patent publication US10988429B2, “Quinochalcone compound and uses thereof for treating cancer or inflammation” (CHON THERAPEUTICS INC., LTD., priority 2017, dated 2021).

Columns and labels:
[1] = test system: mice melanoma B16 cells; assay: B16 tumor-bearing C57 mice, HB-48 versus DMF (Example 3); format: in vivo, mouse; conditions: intratumor injection 5 mg/kg every two days for 10 days
Procedure: Establishment of tumor-bearing mice model: 1×10^5 mice melanoma B16 cells were transplanted into 4˜6 weeks old C57BL/C mice (C57 mice). The weight of each mouse was about 20 g. Tumors were visible on day 7. Mice were treated as follows when the tumor sizes were 5 mm×5 mm. • Control group 1 (PBS): Intratumor injection with PBS. • Experiment group 2 (HB-48): Intratumor injection with HB-48 at 5 mg/kg every two days for 10 days. • Experiment group 3 (DMF): Intratumor injection with DMF with 5 mg/kg every two days for 10 days.
Tumor sizes were recorded daily.

[2] = test system: A375, B16, MP-1, MCF-7, HL-60, K562 and ALL-1 cells; assay: 3D gel culture, clone size, HB-48 alone (Example 1); format: cell-based, human; mouse (B16); conditions: 3D culture; HB-48 1, 5, 10, 20 or 50 μmol/ml; 48 and 96 hours
Procedure: 3D gel technology involves culturing cells in a gel-like matrix. Studies in our lab have shown that cancer cells grown using 3D technology behave more like cancers found in vivo, as cancer cells grown using 3D technology display strong proliferative ability, higher drug resistance, stronger tumorigenicity and greater far-end invasion transfer ability than cancer cells cultured using traditional methods. The following treatments were added to 3D cultures of viable cells. • Control group 1 (Medium): RPMI-1640 medium supplemented with glutamine. • Experiment group1 (HB-48): HB-48 was added to cells at a final concentration of 1 μmol/ml, 5 μmol/ml, 10 μmol/ml, 20 μmol/ml, or 50 μmol/ml in Medium.
Dosing drugs was recorded as day 0. Clone size was determined by taking photographic images 48 and 96 hours after dosing. ImageJ software was used to analyze the size of the clones. The clone sizes in different groups were normalized to the control group on the second day.

[3] = test system: A375, B16, MP-1, MCF-7, HL-60, K562 and ALL-1 cells; assay: 3D gel culture, number of colonies, HB-48 alone (Example 2); format: cell-based, human; mouse (B16); conditions: 3D culture; HB-48 1, 5, 10, 20 or 50 μmol/ml
Procedure: The following treatments were added to cultures of viable cells. • Control group 1 (Medium): RPMI-1640 medium supplemented with glutamine. • Experiment group1 (HB-48): HB-48 was added to cells at a final concentration of 1 μmol/ml, 5 μmol/ml, 10 μmol/ml, 20 μmol/ml, or 50 μmol/ml in Medium.
The day of drug treatment was recorded as day 0. […] The size of colonies in group control on day 2 is served as control.

[4] = test system: PD-1 expression in mouse CD8+ T cells; assay: PD-1 expression on activated mouse CD8+ T cells, flow cytometry (Example 8); format: cell-based; conditions: mouse spleen CD8+ T cells activated by anti-CD3/CD28 beads; Kyn 200 μM and HB-48 10 μM; 48 hours
Procedure: Mouse spleen CD8+ T cells were sorted by magnetic beads and seeded in U-bottom 96-well plates (100,000/well) and T cells were activated by anti-CD3/CD28 magnetic beads. The medium was RPMI-1640 plus 10 ng/Mouse IL-2 and […] β-mercaptoethanol. Treatment and dosing is described below: • Control group 1 (PBS): Medium and PBS; • Experimental group 2 (Kyn): Kyn 200 μM was added to the Medium. • Experimental group 3 (Kyn+DMF): Kyn 200 μM and DMF 10 μM were added to the Medium simultaneously. • Experimental group 4 (Kyn+HB-48): Kyn 200 μM and HB-48 10 μM were added to the Medium simultaneously.
(§1) PD-1 expression levels were measured by flow cytometry in each group of T cells at 48 hours.

[5] = test system: OVA-B16 cells co-cultured with OT-1 CD8+ T cells; assay: Apoptosis of OVA-B16 co-cultured with pretreated OT-1 CD8+ T cells (Example 8); format: cell-based, mouse; conditions: T cells pretreated with HB-48 10 μM for 24 hours; co-culture ratio 1 to 10; 4 hours
Procedure: Spleen CD8+ T cells of OT-1 mice were obtained by magnetic bead sorting, seeded in a U-shaped bottom 96-well plate (100,000 cells/well) and treated as follows. • Control group 1 (PBS): medium plus PBS. • Experimental group 2 (DMF): DMF 10 μM was added to the medium. • Experimental group 3 (HB-48): HB-48 10 μM was added to the medium.
After pretreatment of T cells for 24 hours, 3D cultured OVA-B16 was co-cultured with OT-1 CD8+ T cells at a ratio of 1 to 10, and the apoptosis of OVA-B16 cells was detected by flow cytometry after 4 hours.

[6] = test system: OVA-B16 melanoma cells; assay: OVA-B16 tumor-bearing C57BL/6 mice, adoptive CD8+ T cells and HB-48 (Example 9); format: in vivo, mouse; conditions: HB-48 intratumoral 5 mg/kg every two days, 10 times, OT-1 T cells 4×10^6 i.v. every 5 days, 3 times
Procedure: Tumor-bearing mice were constructed: OVA-B16 melanoma cells were seeded on C57BL/6 mice (inoculation amount of 1×10^5 cells) for 4-6 weeks. […] When the tumor size reached 5 mm×5 mm, tumor-bearing mice were treated as follows: • Control group 1 (PBS): Intratumoral injection of PBS only. • Experimental group 2 (CD8+ T cells): Tumor bearing mice were intravenously adoptively transferred with 4×10^6 OVA-specific CD8^+ T-cells (OT-1 T-cells) once every 5 days for 3 times. • Experimental group 3 (DMF): Tumor-bearing mice were intratumorally injected with DMF every two days, a total of 10 times, each dose of 5 mg/kg. • Experimental group 4 (HB-48): Tumor-bearing mice were intratumorally injected with HB-48 every two days, a total of 10 times, each dose of 5 mg/kg. • Experimental group 5 (CD8+ T and DMF): Tumor-bearing mice were intravenously transferred with OT-1 T cells every 5 days for 3 times, and intratumorally injected with DMF every two days for 10 times at the same time. • Experimental group 6 (CD8+ T and HB-48): Tumor-bearing mice were intravenously transfered with OT-1 T cells every 5 days for 3 times, and intratumorally injected with HB-48 every two days for 10 times at the same time.
Tumor length and width were measured daily, and tumor volume changes were calculated.

[7] = test system: PD-1 expression in human peripheral blood CD8+ T cells; assay: PD-1 expression in peripheral blood CD8+ T cells of breast cancer patients (Example 10); format: cell-based; conditions: resting CD8+ T cells of breast cancer patients; HB-48 10 μM; 48 hours; compared with DMF 10 μM
Procedure: Mononuclear cells were obtained from peripheral blood of breast cancer patients using Ficoll. CD8+ T cells were sorted by magnetic beads and plated on U-bottom 96-well plates (100,000 cells/well) supplemented with RPMI-1640 supplemented with 10 ng/mL human IL-2. Dosing by the following groups: • Control group 1 (PBS): medium plus PBS. • Experimental group 2 (DMF): DMF 10 μM was added to the medium. • Experimental group 3 (HB-48): HB-48 10 μM was added to the medium.
as §1

[8] = test system: PD-1 expression in human activated CD8+ T cells; assay: Kyn-mediated PD-1 upregulation in activated peripheral blood CD8+ T cells of breast cancer patients (Example 10); format: cell-based; conditions: Kyn 200 μM and HB-48 10 μM, 48 hours, compared with DMF 10 μM
Procedure: (§2) Mononuclear cells were obtained from peripheral whole blood of patients with breast cancer using Ficoll. CD8+ T cells were sorted by magnetic beads and plated on 96-well U-shaped bottom plates (100,000 cells/well). T cells were activated by anti-CD3/CD28 magnetic beads. Media was RPMI-1640 plus 10 ng/mL human IL-2. Dosing by the following groups: • Control group 1 (PBS): medium and PBS. • Experimental group 2 (Kyn): Kyn 200 μM was added to the medium. • Experimental group 3 (Kyn+DMF): Kyn 200 μM and DMF 10 μM were added to the medium simultaneously. • Experimental group 4 (Kyn+HB-48): Kyn 200 μM and HB-48 10 μM were added to the medium simultaneously.
as §1

[9] = test system: Kyn transporter PAT4; assay: Expression of Kyn transporter PAT4 in activated human CD8+ T cells, quantitative PCR (Example 10); format: cell-based; conditions: activated CD8+ T cells of breast cancer patients; Kyn 200 μM with or without HB-48 10 μM; 48 hours
Procedure: as §2
Each group of T cells RNA was extracted after 48 hours, and the expression of PAT4 was detected by fluorescence quantitative PCR.

[10] = test system: inflammatory factors of macrophages derived from murine bone marrow; assay: Expression of inflammatory factors in bone marrow-derived macrophages, qPCR (Example 13); format: cell-based, mouse; conditions: HB-48 10 μM, 48 h
Procedure: Bone marrow-derived macrophages were obtained from mouse bone marrow cells, RPMI-1640 plus mouse M-CSF 20 ng/mL for 5 days and were treated as follows: • Control group 1 (PBS): medium plus PBS; • Experimental group 2 (HB-48): medium plus HB-48 at a dose of 10 μM. After 48 h, macrophages were collected and the expression of IFN-γ, TNF-α, IL-12p35, IL-12p40 and IL-2 was detected by qPCR in both groups.

SMILES | tumor growth (tumor volume) [1] | growth (relative clone size) of solid tumor and leukemia cells [2] | colony numbers of solid tumor cells and leukemia cells [3] | Kyn-mediated upregulation of PD-1 in CD8+ T cells [4] | percentage of apoptosis of OVA-B16 tumor cells [5] | therapeutic effect (tumor volume) [6] | PD-1 expression in peripheral blood CD8+ T cells [7] | Kyn-mediated upregulation of PD-1 in peripheral blood CD8+ T cells [8] | expression of PAT4 in peripheral blood CD8+ T cells [9] | expression of IFN-γ [10] | expression of IL-1β [10] | expression of IL-12p35 [10] | expression of IL-12p40 [10] | expression of TNF-α [10]
COc1ccc(-c2cc(=O)c3ccccc3o2)cc1OC [DMF, 3′,4′-Dimethoxyflavone, reference compound] | could inhibit the tumor growth |  |  |  |  |  |  |  |  |  |  |  |  | 
COCOC1=CC(=O)/C(=C(O)/C=C/c2ccc(OCOC)cc2)C(=O)C1(CC=C(C)C)CC=C(C)C [HB-48, 2-[1-hydroxy-3-(4-methoxymethoxyphenyl)allylidene]-5-methoxymethoxy-6,6-diprenylcyclohex-4-ene-1,3-dione] | shows a significant enhanced anticancer effect | significantly inhibited the growth of solid tumor and leukemia cells in a concentration-dependent manner | effectively reduced the colony numbers of solid tumor cells and leukemia cells in a dose dependent manner | inhibited Kyn-mediated upregulation of PD-1 in CD8+ T cells more effectively than DMF | significantly increased | had a certain therapeutic effect | more effectively down-regulated PD-1 expression | inhibited Kyn-mediated upregulation of PD-1 | can down-regulate the expression of PAT4 | significantly reduced | significantly reduced | significantly reduced | significantly reduced | significantly reduced
Nc1ccccc1C(=O)CC(N)C(=O)O (stereo not shown) [Kyn, Kynurenine, reference compound] |  |  |  |  |  |  |  |  | can up-regulate the expression of its transporter PAT4 |  |  |  |  | 
